The values below come from ChEMBL document CHEMBL1142165, “Influence on mitochondria and cytotoxicity of different antibiotics administered in high concentrations on primary human osteoblasts and cell lines” (Antimicrob Agents Chemother, 2007).

A short description of data set [1]: Antiproliferative effect against primary human osteoblasts assessed as BrdU incorporation into DNA after 48 hrs. The settings on record: Osteoblast. Type of data set: functional, cell-based.
The subject of data set [2] is MG-63. Nature of the data set: Antiproliferative effect against MG63 cells assessed as BrdU incorporation into DNA after 48 hrs after 48 hrs. Type of data set: functional, cell-based. The settings on record: Homo sapiens, MG-63, 48 h. On the technique in general: Uptake of a labelled nucleoside into DNA is a usual measure of proliferation.
Data set [3] relates to HeLa. Description: Antiproliferative effect against HeLa cells after 48 hrs. The data set is classed as functional, cell-based. The settings on record: Homo sapiens.
Data set [4] deals with Osteoblast. Description: Increase in lactate production in primary human osteoblasts at 190 ug/ml by ELISA. Type of data set: functional. A general note: In an ELISA, binding on a coated surface is turned into a signal by an enzyme label.
The test system of data set [5] is MG-63. Description: Decrease in lactate production in MG63 cells at 400 ug/ml by ELISA. Further details: scale not given: the % may be the effect or the level left. Type of data set: functional, Homo sapiens.
Data set [6] deals with HeLa. Description: Decrease in lactate production in HeLa cells at 400 ug/ml by ELISA. The data set is classed as functional, Homo sapiens. The arrangement: scale not given: the % may be the effect or the level left.
Data set [7] in a line: Cytotoxicity against primary human osteoblasts at 400 ug/ml assessed as LDH release after 24 hrs. The settings on record: osteoblast, at 400 µg/mL. A general note: LDH leaks from cells whose membrane has failed.
Data set [8] is described as follows: Cytotoxicity against primary human osteoblasts at 100 ug/ml assessed as LDH release after 24 hrs. The data set is classed as cell-based. The settings on record: osteoblast.
Data set [9] can be described thus: Cytotoxicity against primary human osteoblasts at 200 ug/ml assessed as LDH release after 24 hrs. The data set is classed as cell-based. The settings on record: osteoblast.
Data set [10] relates to Osteoblast. Description: Inhibition of metabolic activity in primary human osteoblasts assessed as MTT reduction after 48 hrs. The data set is classed as functional, cell-based.
In data set [11] the test system is MG-63. Description: Inhibition of metabolic activity in MG63 cells assessed as MTT reduction after 48 hrs. The settings on record: Homo sapiens, MG-63, 48 h. The data set is classed as functional, cell-based.
In data set [12] the test system is HeLa. Nature of the data set: Inhibition of metabolic activity in HeLa cells assessed as MTT reduction after 48 hrs. The data set is classed as functional, cell-based. To be noted: Homo sapiens.
In data set [13] the test system is Osteoblast. Description: Inhibition of metabolic activity in primary human osteoblasts in presence of 10% FCS. Type of data set: functional.
Data set [14] deals with MG-63. Description: Decrease in lactate production in MG63 cells by ELISA. The data set is classed as functional, cell-based. The settings on record: Homo sapiens.
The subject of data set [15] is HeLa. Description: Decrease in lactate production in HeLa cells by ELISA. The data set is classed as functional, cell-based. The settings on record: Homo sapiens.
Data set [16] has as its system MG-63. Description: Increase in lactate production in MG63 cells at 400 ug/ml by ELISA relative to control. The data set is classed as functional, Homo sapiens.
The subject of data set [17] is Osteoblast. Nature of the data set: Antiproliferative effect against primary human osteoblasts in presence of 10% FCS. Type of data set: functional, cell-based.
The subject of data set [18] is Osteoblast. Description: Antiproliferative effect against primary human osteoblasts assessed as BrdU incorporation into DNA at 10 ug/ml after 48 hrs. Type of data set: functional, cell-based.
Data set [19] has as its system Osteoblast. Nature of the data set: Increase in lactate production in primary human osteoblasts at 25 to 50 ug/ml by ELISA. Type of data set: functional.
For data set [20], the system named is Osteoblast. Description: Increase in lactate production in primary human osteoblasts at 400 ug/ml by ELISA relative to control. The data set is classed as functional.
The test system of data set [21] is Osteoblast. Nature of the data set: Increase in lactate production in primary human osteoblasts at 1.5 ug/ml by ELISA. Type of data set: functional.

In general, IC20 refers to the concentration at which the effect reaches the 20% level. For orientation: IC50 means the concentration needed to halve the response being measured.

Converted amounts (≈) assume the structure as drawn. The source made the active and inactive calls. No cut-off for these calls is given here.

As for `CN(C)[C@@H]1C(O)=C(C(N)=O)C(=O)[C@@]2(O)C(O)=C3C(=O)c4c(O)cccc4[C@@](C)(O)[C@H]3C[C@@H]12` [TETRACYCLINE], the IC20 in [1] turned out to be 60 µg/mL (≈ 135 µM); with MG-63 [2] it was 60 µg/mL (≈ 135 µM); in the data set on HeLa [3] it was 200 µg/mL (≈ 450 µM). For the same compound, the IC50 in data set [1] is 180 µg/mL (≈ 405 µM); in the data set on MG-63 [2] it was 180 µg/mL (≈ 405 µM); with HeLa [3], above 400 µg/mL. Besides, the Activity in the data set with Osteoblast [4] turned out to be 30%; with MG-63 [5], 50%; in the data set on HeLa [6], 50%.

Consider `CC[C@H]1OC(=O)[C@H](C)[C@@H](O[C@H]2C[C@@](C)(OC)[C@@H](O)[C@H](C)O2)[C@H](C)[C@@H](O[C@@H]2O[C@H](C)C[C@H](N(C)C)[C@H]2O)[C@](C)(O)C[C@@H](C)/C(=N\OCOCCOC)[C@H](C)[C@@H](O)[C@]1(C)O` [ROXITHROMYCIN], for which the Activity in data set [7] is given as 40%; in data set [8], 20%; in data set [9], 30%. Besides, the IC20 in data set [1] came out at 20 µg/mL (≈ 23.9 µM); in the data set on Osteoblast [10], 110 µg/mL (≈ 131 µM); in the data set on MG-63 [2], 50 µg/mL (≈ 59.7 µM); in the data set with MG-63 [11], 50 µg/mL (≈ 59.7 µM); with HeLa [3], 100 µg/mL (≈ 119 µM); in the data set on HeLa [12], 30 µg/mL (≈ 35.8 µM). In addition, the IC50 in [1] was determined as 70 µg/mL (≈ 83.6 µM); in the data set on Osteoblast [10], 210 µg/mL (≈ 251 µM); in the data set with MG-63 [2] it was 180 µg/mL (≈ 215 µM); with MG-63 [11], 110 µg/mL (≈ 131 µM); in the data set with HeLa [3], 160 µg/mL (≈ 191 µM); with HeLa [12], 90 µg/mL (≈ 108 µM).

Consider `CCC[C@@H]1C[C@@H](C(=O)N[C@@H]([C@H]2O[C@H](SC)[C@H](O)[C@@H](O)[C@H]2O)[C@H](C)Cl)N(C)C1` [CLINDAMYCIN], for which the Activity worked out at 10% in data set [7] and 60% in the data set with MG-63 [16]. The IC20 came out at 20 µg/mL with Osteoblast [13]; 40 µg/mL (≈ 94.1 µM) in data set [1]; 340 µg/mL (≈ 800 µM) in the data set with Osteoblast [10]; 160 µg/mL (≈ 376 µM) in the data set on MG-63 [2]; 200 µg/mL (≈ 471 µM) in the data set on MG-63 [11]; 230 µg/mL (≈ 541 µM) with HeLa [3]. The IC20 with HeLa [12] was determined as 80 µg/mL (≈ 188 µM). Besides, the IC50 in data set [1] is 150 µg/mL (≈ 353 µM); in the data set on Osteoblast [10], above 400 µg/mL; in the data set on MG-63 [2], 250 µg/mL (≈ 588 µM); in the data set with MG-63 [11] it was above 400 µg/mL; with HeLa [3] it was above 400 µg/mL; in the data set with HeLa [12], 200 µg/mL (≈ 471 µM). The result in the data set with MG-63 [14], in the data set on HeLa [15] and in the data set with Osteoblast [17] was Active.

Turning to `O=C(O)c1cn(C2CC2)c2cc(N3CCNCC3)c(F)cc2c1=O` [CIPROFLOXACIN], the IC20 in data set [1] was 70 µg/mL (≈ 211 µM); in the data set on Osteoblast [10], 260 µg/mL (≈ 785 µM); in the data set with MG-63 [2], 80 µg/mL (≈ 241 µM); in the data set with MG-63 [11], 60 µg/mL (≈ 181 µM); with HeLa [3], 100 µg/mL (≈ 302 µM); in the data set with HeLa [12], 70 µg/mL (≈ 211 µM). In addition, the IC50 in [1] is 170 µg/mL (≈ 513 µM); in the data set with Osteoblast [10], above 400 µg/mL; in the data set on MG-63 [2], 160 µg/mL (≈ 483 µM); with MG-63 [11] it was 150 µg/mL (≈ 453 µM); with HeLa [3] it was 290 µg/mL (≈ 875 µM); with HeLa [12], 120 µg/mL (≈ 362 µM). Moreover, the result in the data set with Osteoblast [18] was Active. In the data set with Osteoblast [19], this compound yielded an Activity of 10%.

As for `O=C(N[C@H](CO)[C@H](O)c1ccc([N+](=O)[O-])cc1)C(Cl)Cl` [CHLORAMPHENICOL], the IC20 in data set [1] came to 60 µg/mL (≈ 186 µM); with Osteoblast [10], 260 µg/mL (≈ 805 µM); in the data set with MG-63 [2] it was 200 µg/mL (≈ 619 µM); with MG-63 [11], 110 µg/mL (≈ 340 µM); with HeLa [3] it was 340 µg/mL (≈ 1050 µM); in the data set with HeLa [12], 100 µg/mL (≈ 309 µM). For the same compound, the IC50 in data set [1] was 230 µg/mL (≈ 712 µM); in the data set on Osteoblast [10] it was above 400 µg/mL; in the data set with MG-63 [2] it was above 400 µg/mL; in the data set on MG-63 [11], 400 µg/mL (≈ 1240 µM); with HeLa [3], above 400 µg/mL; in the data set with HeLa [12] it was 340 µg/mL (≈ 1050 µM). The Activity was found to be 150% in the data set with Osteoblast [20] and 12% in the data set with Osteoblast [21]. The outcome with Osteoblast [17] was Active.

On to `CC[C@H]1OC(=O)[C@H](C)[C@@H](O[C@H]2C[C@@](C)(OC)[C@@H](O)[C@H](C)O2)[C@H](C)[C@@H](O[C@@H]2O[C@H](C)C[C@H](N(C)C)[C@H]2O)[C@](C)(O)C[C@@H](C)C(=O)[C@H](C)[C@@H](O)[C@]1(C)O` [ERYTHROMYCIN], for which the Activity is given as 40% in data set [7] and 60% in the data set on MG-63 [16]. Further, the IC20 came to 11 µg/mL in the data set on Osteoblast [13]; 30 µg/mL (≈ 40.9 µM) in [1]; 210 µg/mL (≈ 286 µM) with Osteoblast [10]; 130 µg/mL (≈ 177 µM) in the data set with MG-63 [2]; 180 µg/mL (≈ 245 µM) with MG-63 [11]; 210 µg/mL (≈ 286 µM) in the data set on HeLa [3]. Also, the IC20 with HeLa [12] amounted to 110 µg/mL (≈ 150 µM). Besides, the IC50 was 180 µg/mL (≈ 245 µM) in data set [1]; above 400 µg/mL with Osteoblast [10]; 300 µg/mL (≈ 409 µM) in the data set with MG-63 [2]; 310 µg/mL (≈ 422 µM) in the data set on MG-63 [11]; above 400 µg/mL with HeLa [3]; 170 µg/mL (≈ 232 µM) in the data set with HeLa [12]. Besides, the result with Osteoblast [17] was Active.

For `Cc1nnc(SCC2=C(C(=O)O)N3C(=O)[C@@H](NC(=O)Cn4cnnn4)[C@H]3SC2)s1` [CEFAZOLIN], the IC20 was 380 µg/mL (≈ 836 µM) in data set [1]; above 400 µg/mL in the data set on Osteoblast [10]; 230 µg/mL (≈ 506 µM) in the data set on MG-63 [2]; 400 µg/mL (≈ 880 µM) in the data set with MG-63 [11]; 270 µg/mL (≈ 594 µM) in the data set on HeLa [3]; above 400 µg/mL in the data set on HeLa [12]. Besides, the IC50 (in data set [1]; in the data set on Osteoblast [10]; in the data set on MG-63 [2]; in the data set on MG-63 [11]; in the data set with HeLa [3]; in the data set with HeLa [12]) was above 400 µg/mL in each case.
